Source: patent US12708677B2, “Contrast agents, methods for preparing contrast agents, and methods of imaging” (Georgia State University Research Foundation, Inc., priority 2008, dated 2026)
Where two headings read alike, the source gives them in different places.

Tests used:
[1] = In vitro r1 and r2 proton relaxivity; assay type: physicochemical
Experimental: Determination of r1 and r2 Relaxivity Values, Relaxation times, T1 and T2, were determined at 1.5, 3, 9.4 Tesla using a Siemens whole-body MR system (1.5, 3T) or a Bruker MRI scanner (9.4T). T1 was determined using inversion recovery and T2 using a multi-echo Carr-Purcell-Meiboom-Gill (CPMG) sequence. The contrast agent samples (200 μl) with different concentrations were placed in eppendorf tubes. The tubes were placed on a tube rack, which was placed in MRI scanners for the measurement of relaxation times r1 and r2 were calculated based on r1(mM^−1 S^−1)=(1/T1s−1/T1c)/C and r2(mM^−1 S^−1)=(1/T2s−1/T2c)/C, where T1s and T2s are relaxation times with contrast agent and T1c and T2c are relaxation times without contrast agent. C is the concentration of contrast agent in mM (the measured Gd^3+ concentrations by ICP-MS). […]

CD-1 mice = test: Mouse MR imaging; assay type: in vivo; details: 3T or 9.4T
Experimental: (§1) Mouse MR Imaging. Care of experimental animals was in accordance with institutional guidelines. CD-1 mice (25-30 g, four mice were imaged) were anesthetized with an isoflurane gas mixture. The anesthetized animal was positioned and stabilized with soft-supporting material (e.g., foam) in the scanner in the coil cradle and was kept warm during the MRI scan. The mice were scanned prior to the administration of any contrast agent (pre-contrast). Approximately 50 μl of Gd-CA1.CD2 (~1.2 mM) or Gd-DTPA (~300 mM) were injected into the animal via the tail vein. MR images were collected at different times (indicated). For T1 weighted imaging at 3T, spin echo sequence with TE/TR=15 ms/500 ms was employed. Rectangular Field of View (FOV) at 100/40 mm, an acquisition matrix of 196^2 and 1.1 mm slice thickness without gap were used. Images were collected from both transverse and coronal sections. The in-plane resolution of images was less than 0.5 mm after they were reconstructed to the matrix of 196^2. For T2 weighted imaging at 9.4T, MR images were recorded using a multi-echo Carr-Purcell-Meiboom-Gill (CPMG) sequence. The data were collected and processed by Dicomworks software. The MR signal intensity in several organs was ascertained by the average intensity in ROIs or points within the organs. Signal intensity for each organ was normalized to that of the leg muscle.
as §1, with “Care” for “Mouse MR Imaging. Care”, “(e.g.” for “(e.g.,”

[2] = In vitro r1 and r2 proton relaxivity; assay type: physicochemical; details: 3.0 T; 50 μM designed agents, 100 μM Gd-DTPA
[3] = literature; cited from earlier work
[4] = standard curve, well-characterized chelators; cited from earlier work
[5] = literature; cited from earlier work; remark: listed apart in the source
[6] = literature; cited from earlier work; remark: listed apart in the source
[7] = cited from earlier work; for r1: based on references
[8] = used for the Gd^3+ buffer system; read-out: Gd^3+-binding affinity; cited from earlier work
[9] = Water coordination number by terbium life time luminescence; assay type: physicochemical
Experimental: Measurement of Water Coordination Number by Terbium Life Time Luminescence. The number of water ligands coordinated to Gd^3+-CA1.CD2 complex was determined by measuring Tb^3+ luminescence decay in H2O or D2O. Tb^3+ excited state lifetime was measured using a fluorescence spectrophotometer (Photon Technology International, Inc.) with a 10 mm path length quartz cell at 22° ° C. Following excitation at 265 nm with a XenoFlash (Photon Technology International, Inc.), Tb^3+ emission was monitored at 545 nm in a time series experiment in both H2O and D2O systems. Luminescence decay lifetime was obtained by fitting the acquired data with a mono-exponential decay function. H2O in CA1.CD2 solution was replaced with D2O by lypholization and re-dissolved in D2O at least three times. A standard curve correlating the Δkobs with water number under our experimental conditions was established by using well-characterized chelators, such as EDTA (q=3), DTPA (q=1), NTA (q=5), and Aquo Tb^3+ (q=9) solution with R^2=0.997.^26,27 Water number coordinated to Tb^3+-CA1.CD2 complex was then obtained by fitting the acquired Δkobs value to the standard curve.
The numbers of water ligands coordinated to Gd^3+-CA1.CD2 and variants complex were determined by measuring Tb^3+ luminescence decay in H2O or D2O (Yang et al., 2008). Tb^3+ excited state lifetime was measured using a fluorescence spectrophotometer (Photon Technology International, Inc.) with a 10 mm path length quartz cell at 22° C. Following excitation at 265 nm with a XenoFlash (Photon Technology International, Inc.), Tb^3+ emission was monitored at 545 nm in a time series experiment in both H2O and D2O systems. Luminescence decay lifetime was obtained by fitting the acquired data with a mono-exponential decay function. H2O in CA1.CD2 solution was replaced with D2O by lypholization and re-dissolved in D2O at least three times. A standard curve correlating the Δkobs with water number under our experimental conditions was established by using well-characterized chelators, such as EDTA (q=3). DTPA (q=1), NTA (q=5), and Aquo Tb^3+ (q=9) solation with R^2=0.997.^26, 27 Water number coordinated to Tb^+-CA1.CD2 complex was then obtained by fitting the acquired Δkobs value to the standard curve.

PC-3 = test: Uptake and internalization by confocal fluorescent microscope; assay type: cell-based
Experimental: (§2) DU-145, PC-3 and H441 cells (8×10^4) were seeded in 4-well chambers (BD) at 37° C. overnight. In the second day, fresh medium was changed. Contrast agents were incubated with cells at different time point at 37° C. Subsequently, the cells were washed with PBS for three times and fixed with 3% formaldehyde for 15 minutes. After cells were rinsed in PBS for three times, 0.2% Triton X-100 was added to permeablize cells for 10 minutes. The cells were washed and four drops of Image-IT Fx signal enhancer (Invitrogen, CA) was applied in each sample to block unspecific binding. After three time washes, CD2 antibody was used as primary antibody. Goat anti-mouse IgG conjugated with Alexa Fluor 488 was used as detection antibody (Invitrogen, CA). The fluorescence image was acquired using 488 nm and UV lasers.

DU-145 = test: as above; assay type: cell-based
Experimental: as §2

[10] = Serum stability in human serum at 37° C., SDS-PAGE; assay type: in vitro ADME; details: 24 hours at 37° C., SDS Page
Experimental: Serum stability. […] The degradation of the protein (disappearance of 12 kDa protein band) was analyzed by SDS-PAGE and visualized by coomassie blue staining. In parallel, the degradation of the protein was also analyzed by immunoblot using antibodies OX54 or PabCD2. The identities of the 12 kDa bands as CA1.CD2 were always verified by immunobloting using antibody PabCD2.
[…] The degradation of the protein (disappearance of 12 kDa protein band) was analyzed by SDS-PAGE and visualized by coomassie blue staining for protein and idiol staining for PEG moiety. In parallel, the degradation of the protein was also analyzed by immunoblot using antibodies OX54 or PabCD2. The identities of CA1.CD2 and pegylated variants were verified by immunoblotting using antibody PabCD2.and idiol staining.

Q: With `O=C([O-])CN(CCN(CC(=O)[O-])CC(=O)O)CCN(CC(=O)[O-])CC(=O)O.[Gd+3]` [Gd-DTPA, reference compound] as the molecule, how does the r1 ([1]; B0 1.5 T) read?
A: 5.4 mM⁻¹ s⁻¹

Q: And the r1 ([1]; B0 3 T)?
A: 4.2 mM⁻¹ s⁻¹

Q: And the “contrast enhancement at the same concentration as Gd-CA1.CD2” value (CD-1 mice)?
A: failed to exhibit contrast enhancements

Q: What about the “contrast enhancement in T1 weighted imaging of samples” value [2] of the same molecule?
A: did not lead to significant enhancement

Q: Which “Log (KGd/KCa)” value [3] does the source give for `O=C(O)CN(CCN(CC(=O)O)CC(=O)O)CCN(CC(=O)O)CC(=O)O` [DTPA] here?
A: 11.70

Q: And the “Metal binding constant (Log Ka) Ca^2+” value [3]?
A: 10.75

Q: What about the “water number q of standard chelators” value [4] of the same molecule?
A: 1

Q: What about the “Log (KGd/KMg)” value [5] of the same molecule?
A: 4.25

Q: What about the “Log (KGd/KZn)” value [6] of the same molecule?
A: 4.17

Q: What about the relaxivity ([7]; clinically used DTPA, field not stated) of the same molecule?
A: 5 mM⁻¹ s⁻¹

Q: Which results are given for `O=C(O)CN(CC(=O)O)CC(=O)O` [NTA, nitrilotriacetic acid]?
A: water number q of standard chelators [4]: 5; Kd [8]: 2.6 pM

Q: For troponin C [reference compound], which “hydration number (water number in the coordination shell)” value [9] is on record?
A: 1.8

Q: With Gadomer-17 as the molecule, how does the r1 ([7]; B0 1.5 T) read?
A: 13 mM⁻¹ s⁻¹

Q: Which r1 ([7]; B0 0.25 T) does the source give for Albumin here?
A: 11.5 mM⁻¹ s⁻¹

Q: With `O=C(O)CN(CCN(CC(=O)O)CC(=O)O)CC(=O)O` [EDTA] as the molecule, how does the “water number q of standard chelators” value [4] read?
A: 3

B1: CA1.CD2-521-Bom: Bom/GRP sequence grafted into CA1.CD2 (protein)
chain: RDSGTVWGALGHGIELNIPNFQMTDDIDEVRWERGSTLVAEFKRKMKPFLKSGGSGGGNQWAVGHLMGGSGGGAFEIDANGDLDIKNLTRDDSGTYNVTVYSTNGTRILNKALDLRILE
Q: With B1 as the molecule, how does the “uptake in GRPR positive PC-3 cells” value (PC-3) read?
A: uptake and internalization

Q: And the “uptake in GRPR positive DU-145 cells” value (DU-145)?
A: uptake and internalization

B2: CA1.CD2-P40: CA1.CD2 PEGylated with PEG40 (conjugate)
chain: RDSGTVWGALGHGINLNIPNFQMTDDIDEVRWERGSTLVAEFKRKMKPFLKSGAFEILANGDLKIKNLTRDDSGTYNVTVYSTNGTRILNKALDLRILE
Q: For B2, which “stability in human serum” value [10] is on record?
A: remains intact
